According to US10131644B2, “Aryl sultam derivatives as RORc modulators” (Genentech, Inc., priority 2014, dated 2018):

Each compound was assayed against T1, RORc (Homo sapiens, UniProt P51449) (assay: In vitro RORc ligand binding assay (25-[3H]hydroxycholesterol displacement)). Details: IC50, IC50 values for RORc; unit inferred.
T1 sequence (P51449 269-508 limits assumed): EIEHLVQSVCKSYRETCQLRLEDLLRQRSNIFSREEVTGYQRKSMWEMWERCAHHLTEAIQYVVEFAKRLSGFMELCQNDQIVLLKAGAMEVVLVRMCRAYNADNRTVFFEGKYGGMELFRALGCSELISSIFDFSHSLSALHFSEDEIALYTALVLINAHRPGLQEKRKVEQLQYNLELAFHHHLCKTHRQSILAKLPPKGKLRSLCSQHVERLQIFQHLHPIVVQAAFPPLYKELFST
Description: This assay was used to determine a compound's potency in inhibiting activity of RORc by determining, Kiapp, IC50, or percent inhibition values.
On day of the assay, 100 uL of 0.05% CHAPS (in deionized H2O) was added to all wells of the GFB Unifilter plate and allowed soak for 1 h. A wash buffer of 50 mM HEPES (pH 7.4), 150 mM NaCl, and 5 mM MgCl2 was prepared to wash the filter plate. To prepare an assay buffer, BSA was added to the wash buffer to reach 0.01% and DTT was added to reach 1 mM.
The 20× compound stocks were diluted in DMSO with Assay Buffer 4-fold to reach 5× the final test concentration in 25% DMSO (10 uL compound+30 uL Assay Buffer). Solutions were mixed by aspiration several times with a pipette set on 50 uL volume. For the assay, 10 uL of 5× compound stock solutions in 25% DMSO were added to the assay plate in duplicate.
For two point screening, 10 mM stock compound solutions were diluted in DMSO to obtain 200 uM (20× the high test concentration) and then diluted 10-fold further to reach 20 uM (20× the low test concentration). The 20× stocks were diluted 4-fold with Assay Buffer (10 uL compound+30 uL Assay Buffer) to reach 5× the test concentrations (50 uM and 5 uM) and 10 uL were added to two assay plates for the duplicate wells. With each concentration tested on 2 plates, each set of 80 compounds used 4 assay plates (1 uM and 10 uM, with n=2).
For 25-hydroxycholesterol in 25% DMSO/75% Assay Buffer; 10 uL per well was used for NSB samples. Wells for Total Binding and No Receptor sample determination contained 10 uL of 25% DMSO/75% Assay Buffer per well.
Add 20 uL to all wells to reach 6 nM final in the assay.
Stock receptor solution was diluted in assay buffer to obtain 1.5 ug/mL in Assay Buffer. 20 uL was added to all wells. For No R samples, 20 uL Assay Buffer was substituted for receptor solution.
Assay plates were 96-well polypropylene V-bottom plates. 10 uL of 5× compound in 25% DMSO/75% Assay Buffer was added to Test wells. 10 uL of 25% DMSO/75% Assay Buffer was added to Total Binding or No Receptor wells. 10 uL of 5 uM 25-hydroxycholesterol in 25% DMSO/75% Assay Buffer was added to NSB wells. […] 20 uL of 1.5 ug/mL RORc receptor was added to wells (or 40 uL Assay Buffer to No R wells). Following addition to the wells, the plates were incubated 3 h at 25° C.
Using a Packard Filtermate Harvester, the filter plate were washed 4 times following transfer of the incubated samples. Plates were dry-filtered completely (2 h at 50° C. or overnight at room temperature). 50 uL Microscint 0 was added to all wells and read on Topcount protocol Inverted.
For NSB wells, 1 uM 25-hydroxycholesterol was also present.
For C[C@H]1CC[C@H](c2ccccc2)S(=O)(=O)N1Cc1cc(F)c(C2(OCC(=O)O)CCOCC2)cc1F [Compound 145, 2-[4-[2,5-difluoro-4-[[(3S,6R)-3-methyl-1,1-dioxo-6-phenyl-thiazinan-2-yl]methyl]phenyl]tetrahydropyran-4-yl]oxyacetic acid], the IC50 was 14.3 nM. Work on C[C@H]1CC[C@H](c2ccccc2)S(=O)(=O)N1Cc1cc(F)c(C2(C#N)CCOCC2)cc1F [Compound 122, 4-[2,5-difluoro-4-[[(3S,6R)-3-methyl-1,1-dioxo-6-phenyl-thiazinan-2-yl]methyl]phenyl]tetrahydropyran-4-carbonitrile] yielded an IC50 of 26.8 nM. C[C@H]1CC[C@H](c2ccccc2)S(=O)(=O)N1Cc1cc(F)c(C2(OCC(N)=O)CCOCC2)cc1F [Compound 150, 2-[4-[2,5-difluoro-4-[[(3S,6R)-3-methyl-1,1-dioxo-6-phenyl-thiazinan-2-yl]methyl]phenyl]tetrahydropyran-4-yl]oxyacetamide] gave an IC50 of 6.1 nM. In the case of C[C@H]1CC[C@H](c2ccccc2)S(=O)(=O)N1Cc1cc(F)c(C2(O)COC2)cc1F [Compound 192, 3-[2,5-difluoro-4-[[(3S,6R)-3-methyl-1,1-dioxo-6-phenyl-thiazinan-2-yl]methyl]phenyl]oxetan-3-ol], the IC50 is reported as 2.65 nM. Work on CNC(=O)CCC1(c2cc(F)c(CN3[C@@H](C)CC[C@H](c4ccccc4)S3(=O)=O)cc2F)CC1 [Compound 146, 3-[1-[2,5-difluoro-4-[[(3S,6R)-3-methyl-1,1-dioxo-6-phenyl-thiazinan-2-yl]methyl]phenyl]cyclopropyl]-N-methyl-propanamide] yielded an IC50 of 32.7 nM. C[C@H]1CC[C@H](c2ccccc2)S(=O)(=O)N1Cc1ccc(C2(NC(=O)OC(C)(C)C)CC2)cc1F [Compound 152, tert-butyl N-[1-[3-fluoro-4-[[(3S,6R)-3-methyl-1,1-dioxo-6-phenyl-thiazinan-2-yl]methyl]phenyl]cyclopropyl]carbamate] was tested, and the IC50 was 227 nM. C[C@H]1CC[C@H](c2ccccc2)S(=O)(=O)N1Cc1ccc(C2(NC(=O)C(O)CO)CCOCC2)cc1F (stereo partly drawn) [Compound 111, N-[4-[3-fluoro-4-[[(3S,6R)-3-methyl-1,1-dioxo-6-phenyl-thiazinan-2-yl]methyl]phenyl]tetrahydropyran-4-yl]-2,3-dihydroxy-propanamide] gave an IC50 of 138 nM. Compound C[C@H]1CC[C@H](c2ccccc2)S(=O)(=O)N1Cc1cc(F)c(C2(CO)CCC(O)CC2)cc1F (stereo partly drawn) [Compound 130, 4-[2,5-difluoro-4-[[(3S,6R)-3-methyl-1,1-dioxo-6-phenyl-thiazinan-2-yl]methyl]phenyl]-4-(hydroxymethyl)cyclohexanol] has an IC50 of 34.7 nM. C[C@H]1CC[C@H](c2ccccc2)S(=O)(=O)N1Cc1ccc(C2(C#N)CC(F)(F)C2)cc1F [Compound 165, 3,3-difluoro-1-[3-fluoro-4-[[(3S,6R)-3-methyl-1,1-dioxo-6-phenyl-thiazinan-2-yl]methyl]phenyl]cyclobutanecarbonitrile] showed an IC50 of 52.2 nM. C[C@H]1CC[C@H](c2ccccc2)S(=O)(=O)N1Cc1ccc(C2(C(=O)N(C)C)CCOCC2)cc1 [Compound 35, 4-[4-((3S,6R)-3-Methyl-1,1-dioxo-6-phenyl-[1,2]thiazinan-2-ylmethyl)-phenyl]-tetrahydro-pyran-4-carboxylic acid dimethylamide] showed an IC50 of 820 nM. C[C@H]1CC[C@H](c2ccccc2)S(=O)(=O)N1Cc1ccc([C@]2(CO)CC[C@H](n3cnnc3)CC2)cc1 [Example 14, {1-[4-((3S,6R)-3-Methyl-1,1-dioxo-6-phenyl-[1,2]thiazinan-2-ylmethyl)-phenyl]-4-[1,2,4]triazol-4-yl-cyclohexyl}-methanol] was tested, and the IC50 was 1800 nM. In the case of CC(=O)N(C)CC1(c2ccc(CN3[C@@H](C)CC[C@H](c4ccccc4)S3(=O)=O)c(F)c2)CCOCC1 [Compound 80, N-[[4-[3-fluoro-4-[[(3S,6R)-3-methyl-1,1-dioxo-6-phenyl-thiazinan-2-yl]methyl]phenyl]tetrahydropyran-4-yl]methyl]-N-methyl-acetamide], the IC50 is reported as 104 nM. C[C@H]1CC[C@H](c2ccccc2)S(=O)(=O)N1Cc1ccc([C@]2(C#N)C[C@@H](O)C2)cc1F [Compound 179, 1-[3-fluoro-4-[[(3S,6R)-3-methyl-1,1 dioxo-6-phenyl-thiazinan-2-yl]methyl]phenyl]-3-hydroxy-cyclobutanecarbonitrile] gave an IC50 of 159 nM. C[C@H]1CC[C@H](c2ccccc2)S(=O)(=O)N1Cc1ccc(C2(C#N)CC(=O)C2)cc1F [Compound 162, 1-[3-fluoro-4-[[(3S,6R)-3-methyl-1,1-dioxo-6-phenyl-thiazinan-2-yl]methyl]phenyl]-3-oxo-cyclobutanecarbonitrile] showed an IC50 of 63.9 nM. Compound C[C@H]1CC[C@H](c2ccccc2)S(=O)(=O)N1Cc1ccc(C2(NCCO)CCOCC2)cc1F [Compound 106, 2-[[4-[3-fluoro-4-[[(3S,6R)-3-methyl-1,1-dioxo-6-phenyl-thiazinan-2-yl]methyl]phenyl]tetrahydropyran-4-yl]amino]ethanol] has an IC50 of 137 nM. Compound C[C@H]1CC[C@H](c2ccccc2)S(=O)(=O)N1Cc1ccc(C2(C(N)=O)CCOCC2)cc1F [Compound 67, 4-[3-fluoro-4-[[(3S,6R)-3-methyl-1,1-dioxo-6-phenyl-thiazinan-2-yl]methyl]phenyl]tetrahydropyran-4-carboxamide] has an IC50 of 18 nM. In the case of CC(=O)NC1(c2ccc(CN3[C@@H](C)CC[C@H](c4ccccc4)S3(=O)=O)c(F)c2)CCOCC1 [Compound 94, N-[4-[3-fluoro-4-[[(3S,6R)-3-methyl-1,1-dioxo-6-phenyl-thiazinan-2-yl]methyl]phenyl]tetrahydropyran-4-yl]acetamide], the IC50 is reported as 93.2 nM. C[C@H]1CC[C@H](c2ccccc2)S(=O)(=O)N1Cc1ccc(C2(C(=O)O)CCOCC2)cc1F [Compound 44, 4-[3-Fluoro-4-((3S,6R)-3-methyl-1,1-dioxo-6-phenyl-[1,2]thiazinan-2-ylmethyl)-phenyl]-tetrahydro-pyran-4-carboxylic acid] was tested, and the IC50 was 1100 nM. Compound CNC(=O)C1(c2ccc(CN3[C@@H](C)CCC(c4ccccc4)S3(=O)=O)cc2)CCOCC1 (stereo partly drawn) [Compound 40, 4-[4-((S)-3-Methyl-1,1-dioxo-6-phenyl-[1,2]thiazinan-2-ylmethyl)-phenyl]-tetrahydro-pyran-4-carboxylic acid methylamide] has an IC50 of 570 nM. Work on C[C@H]1CC[C@H](c2ccccc2)S(=O)(=O)N1Cc1ccc(C2(COCCO)CCOCC2)cc1F [Compound 83, 2-[[4-[3-fluoro-4-[[(3S,6R)-3-methyl-1,1-dioxo-6-phenyl-thiazinan-2-yl]methyl]phenyl]tetrahydropyran-4-yl]methoxy]ethanol] yielded an IC50 of 46 nM. Work on CCOC(=O)C[C@@H](O)C1(c2ccc(CN3[C@@H](C)CC[C@H](c4ccccc4)S3(=O)=O)c(F)c2)CCOCC1 [Compound 116, ethyl (3R)-3-[4-[3-fluoro-4-[[(3S,6R)-3-methyl-1,1-dioxo-6-phenyl-thiazinan-2-yl]methyl]phenyl]tetrahydropyran-4-yl]-3-hydroxy-propanoate] yielded an IC50 of 12.2 nM. Work on C[C@H]1CC[C@H](c2ccccc2)S(=O)(=O)N1Cc1ccc(OCC2(F)CCOCC2)cc1F [Example 5, (3S,6R)-2-[2-Fluoro-4-(4-fluoro-tetrahydro-pyran-4-ylmethoxy)-benzyl]-3-methyl-6-phenyl-[1,2]thiazinane 1,1-dioxide] yielded an IC50 of 160 nM. C[C@H]1CC[C@H](c2ccccc2)S(=O)(=O)N1Cc1ccc(C2(COCC(N)=O)CCOCC2)cc1F [Compound 121] was tested, and the IC50 was 16 nM. For C[C@H]1CC[C@H](c2ccccc2)S(=O)(=O)N1Cc1ccc(OCC2(C#N)CCOCC2)cc1F [Example 6, 4-{3-Fluoro-4-((3S,6R)-3-methyl-1,1-dioxo-6-phenyl-[1,2]thiazinan-2-ylmethyl)-phenoxymethyl]-tetrahydro-pyran-4-carbonitrile], the IC50 was 220 nM. C[C@H]1CC[C@H](c2ccccc2)S(=O)(=O)N1Cc1ccc(C2(C#N)CCOCC2)cc1F [Compound 61, 4-[3-fluoro-4-[[(3S,6R)-3-methyl-1,1-dioxo-6-phenyl-thiazinan-2-yl]methyl]phenyl]tetrahydropyran-4-carbonitrile] showed an IC50 of 186 nM. C[C@H]1CC[C@@H](c2ccccc2)S(=O)(=O)N1Cc1cc(F)c(C2(CO)CCC(O)CC2)cc1F (stereo partly shown) [Compound 131] was tested, and the IC50 was 72.8 nM. For C[C@H]1CC[C@H](c2ccccc2)S(=O)(=O)N1Cc1ccc(C2(OCC(N)=O)COC2)cc1F [Compound 186, 2-[3-[3-fluoro-4-[[(3S,6R)-3-methyl-1,1-dioxo-6-phenyl-thiazinan-2-yl]methyl]phenyl]oxetan-3-yl]oxyacetamide], the IC50 was 8 nM. C[C@H]1CC[C@H](c2ccccc2)S(=O)(=O)N1Cc1cc(F)c(C2(CCC(N)=O)CC2)cc1F [Compound 139, 3-[1-[2,5-difluoro-4-[[(3S,6R)-3-methyl-1,1-dioxo-6-phenyl-thiazinan-2-yl]methyl]phenyl]cyclopropyl]propanamide] gave an IC50 of 23.7 nM. Compound CC(=O)N1CCC(O)(c2ccc(CN3[C@@H](C)CCC(c4ccccc4)S3(=O)=O)cc2)CC1 (stereo partly drawn) [Compound 49, 1-{4-Hydroxy-4-[4-((S)-3-methyl-1,1-dioxo-6-phenyl-[1,2]thiazinan-2-ylmethyl)-phenyl]-piperidin-1-yl}-ethanone] has an IC50 of 120 nM. Compound C[C@H]1CC[C@H](c2ccccc2)S(=O)(=O)N1Cc1ccc(C2(C(=O)NCC#N)CCOCC2)cc1F [Compound 57, N-(cyanomethyl)-4-[3-fluoro-4-[[(3S,6R)-3-methyl-1,1-dioxo-6-phenyl-thiazinan-2-yl]methyl]phenyl]tetrahydropyran-4-carboxamide] has an IC50 of 80.2 nM. For C[C@H]1CC[C@H](c2ccccc2)S(=O)(=O)N1Cc1ccc(C2(CNC(=O)OC(C)(C)C)CCOCC2)cc1F [Compound 74, tert-butyl N-[[4-[3-fluoro-4-[[(3S,6R)-3-methyl-1,1-dioxo-6-phenyl-thiazinan-2-yl]methyl]phenyl]tetrahydropyran-4-yl]methyl]carbamate], the IC50 was 141 nM.
